Eleven compounds from patent EP4592286A1, “MACROCYCLIC NITROGEN-CONTAINING CROWN ETHER COMPOUND AND USE THEREOF AS PROTEIN KINASE INHIBITOR” (Artivila Biopharma, priority 2022, dated 2024) can be followed below.

Holding throughout (assay type): biochemical
For one experiment, the target named is JAK2 (Homo sapiens, UniProt O60674). The experiment can be described thus: experiment of inhibiting kinase activity (Caliper mobility shift assay), JAK2. The following applies: read-out: inhibition rate JAK2; for inhibition at 0.1 µM: at 100 nM; for inhibition at 0.01 µM: at 10 nM. The protocol:
(§1) The inhibition rates of tested compounds on JAK1, JAK2, JAK3, TYK2, CDK7, CDK9, EGFR (T790M) and LRRK2 kinases were measured. The test concentrations of the compounds were 10 nM and 100 nM, and the detection was performed by replicate wells. Alternatively, compounds were 3-fold serial diluted from 10 µM for 10 concentrations in replicate wells.
(§2) The inhibitory effects of the compounds on JAK1, JAK2, JAK3, CDK7 and CDK9 kinases were detected by the method of Caliper mobility shift assay. 250 nL of the compound at 100-fold final concentration was transferred to a destination plate 384-well-plate by using a liquid handler Echo 550. A kinase solution at 2.5-fold final concentration was prepared with 1×kinase buffer. 10 µL of the kinase solution with 2.5-fold final concentration was added to compound wells and positive control wells; and 10 µL of 1×kinase buffer was added to negative control wells. The mixture was centrifuged at 1000 rpm for 30 seconds and then incubated at room temperature for 10 minutes. A mixed solution of ATP and kinase substrate at 5/3-fold final concentration was prepared with 1×kinase buffer, and 15 µL of the mixed solution of ATP and substrate at 5/3-fold final concentration was added to start the reaction. The 384-well plate was centrifuged at 1000 rpm for 30 seconds, shaked and mixed evenly, then incubated at room temperature for a corresponding time. 30 µL of stop solution was added to stop the kinase reaction, the mixture was centrifuged at 1000 rpm for 30 seconds, and shaked and mixed evenly. The conversion rate was read by Caliper EZ Reader. The conversion inhibition rate%=(average positive control conversion rate%-sample conversion rate%)/(average positive control conversion rate%-average negative control conversion rate%). Where negative control wells represent the conversion readings of the background well of kinase buffer; and positive control wells represent the conversion readings of wells without compound inhibition. With the log value of concentration as the x axis and the percentage inhibition rate as the y axis, the dose-response curve was fitted by the log (inhibitor) vs. response-variable slope of the analyzing softwar GraphPad Prism 5, and the IC50 values of each compound on enzyme activity were obtained. Calculation formula is as follows: y=Bottom+(Top-Bottom)/(1+10^((LogIC50-x)×hillslope)), where x is logarithm of inhibitor concentration; and Y is % inhibition rate.

In a further experiment the target is LRRK2 (Homo sapiens, UniProt Q5S007). The experiment in a line: experiment of inhibiting kinase activity, LRRK2. The following applies: for inhibition at 0.1 µM: at 100 nM; for inhibition at 0.1 µM / inhibition at 0.01 µM: read-out: inhibition rate LRRK2; for inhibition at 0.01 µM: at 10 nM; for IC50: kinase activity assay, Table 3. The protocol: as §1
A further experiment addresses CDK7 (Homo sapiens, UniProt P50613). The experiment can be described thus: experiment of inhibiting kinase activity (Caliper mobility shift assay), CDK7. The settings on record: for inhibition at 0.1 µM: at 100 nM; for inhibition at 0.1 µM / inhibition at 0.01 µM: read-out: inhibition rate CDK7; for inhibition at 0.01 µM: at 10 nM. Here is the method:
as §1, §2

Another experiment concerns the target T1, JAK3 (Homo sapiens, UniProt P52333).
T1 sequence (P52333 1-1124): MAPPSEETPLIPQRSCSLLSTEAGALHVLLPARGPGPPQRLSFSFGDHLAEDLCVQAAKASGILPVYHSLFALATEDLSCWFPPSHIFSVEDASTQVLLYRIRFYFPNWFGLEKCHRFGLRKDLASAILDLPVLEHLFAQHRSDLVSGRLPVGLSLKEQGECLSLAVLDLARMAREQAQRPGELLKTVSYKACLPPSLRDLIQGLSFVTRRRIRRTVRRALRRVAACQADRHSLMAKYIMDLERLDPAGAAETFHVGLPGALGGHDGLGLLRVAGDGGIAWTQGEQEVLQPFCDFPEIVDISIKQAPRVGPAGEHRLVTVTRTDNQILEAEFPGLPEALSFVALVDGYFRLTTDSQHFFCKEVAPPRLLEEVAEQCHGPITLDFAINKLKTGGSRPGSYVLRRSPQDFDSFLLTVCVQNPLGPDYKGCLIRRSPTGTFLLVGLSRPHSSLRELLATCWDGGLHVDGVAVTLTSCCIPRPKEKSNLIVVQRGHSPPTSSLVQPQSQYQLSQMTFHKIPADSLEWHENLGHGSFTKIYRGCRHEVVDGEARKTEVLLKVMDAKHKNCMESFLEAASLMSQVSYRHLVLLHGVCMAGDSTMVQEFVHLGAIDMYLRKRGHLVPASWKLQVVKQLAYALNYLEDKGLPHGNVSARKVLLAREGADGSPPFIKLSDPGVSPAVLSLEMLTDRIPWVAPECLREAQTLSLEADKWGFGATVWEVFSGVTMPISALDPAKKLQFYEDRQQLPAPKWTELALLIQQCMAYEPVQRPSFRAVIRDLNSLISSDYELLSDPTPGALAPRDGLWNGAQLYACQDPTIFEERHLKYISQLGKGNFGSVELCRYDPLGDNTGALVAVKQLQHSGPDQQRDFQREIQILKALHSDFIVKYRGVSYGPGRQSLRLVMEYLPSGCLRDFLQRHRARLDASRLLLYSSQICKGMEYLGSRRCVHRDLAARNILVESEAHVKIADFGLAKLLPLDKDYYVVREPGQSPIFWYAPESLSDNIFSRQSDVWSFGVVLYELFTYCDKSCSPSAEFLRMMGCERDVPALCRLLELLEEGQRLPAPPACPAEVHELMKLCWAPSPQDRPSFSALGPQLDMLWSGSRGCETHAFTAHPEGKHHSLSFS
The experiment in a line: experiment of inhibiting kinase activity (Caliper mobility shift assay), JAK3. The settings on record: read-out: inhibition rate JAK3; for inhibition at 0.01 µM: at 10 nM; for inhibition at 0.1 µM: at 100 nM. Here is the method:
as §1, §2

A further experiment addresses JAK1 (Homo sapiens, UniProt P23458). The experiment can be described thus: experiment of inhibiting kinase activity (Caliper mobility shift assay), JAK1. The settings on record: at 10 nM; read-out: inhibition rate JAK1. Here is the method:
as §1, §2

The target of another experiment is TYK2 (Homo sapiens, UniProt P29597). The experiment in a line: experiment of inhibiting kinase activity, TYK2. The settings on record: at 10 nM; read-out: inhibition rate TYK2. Here is the method:
as §1

Sequence of JAK2 (O60674 whole entry): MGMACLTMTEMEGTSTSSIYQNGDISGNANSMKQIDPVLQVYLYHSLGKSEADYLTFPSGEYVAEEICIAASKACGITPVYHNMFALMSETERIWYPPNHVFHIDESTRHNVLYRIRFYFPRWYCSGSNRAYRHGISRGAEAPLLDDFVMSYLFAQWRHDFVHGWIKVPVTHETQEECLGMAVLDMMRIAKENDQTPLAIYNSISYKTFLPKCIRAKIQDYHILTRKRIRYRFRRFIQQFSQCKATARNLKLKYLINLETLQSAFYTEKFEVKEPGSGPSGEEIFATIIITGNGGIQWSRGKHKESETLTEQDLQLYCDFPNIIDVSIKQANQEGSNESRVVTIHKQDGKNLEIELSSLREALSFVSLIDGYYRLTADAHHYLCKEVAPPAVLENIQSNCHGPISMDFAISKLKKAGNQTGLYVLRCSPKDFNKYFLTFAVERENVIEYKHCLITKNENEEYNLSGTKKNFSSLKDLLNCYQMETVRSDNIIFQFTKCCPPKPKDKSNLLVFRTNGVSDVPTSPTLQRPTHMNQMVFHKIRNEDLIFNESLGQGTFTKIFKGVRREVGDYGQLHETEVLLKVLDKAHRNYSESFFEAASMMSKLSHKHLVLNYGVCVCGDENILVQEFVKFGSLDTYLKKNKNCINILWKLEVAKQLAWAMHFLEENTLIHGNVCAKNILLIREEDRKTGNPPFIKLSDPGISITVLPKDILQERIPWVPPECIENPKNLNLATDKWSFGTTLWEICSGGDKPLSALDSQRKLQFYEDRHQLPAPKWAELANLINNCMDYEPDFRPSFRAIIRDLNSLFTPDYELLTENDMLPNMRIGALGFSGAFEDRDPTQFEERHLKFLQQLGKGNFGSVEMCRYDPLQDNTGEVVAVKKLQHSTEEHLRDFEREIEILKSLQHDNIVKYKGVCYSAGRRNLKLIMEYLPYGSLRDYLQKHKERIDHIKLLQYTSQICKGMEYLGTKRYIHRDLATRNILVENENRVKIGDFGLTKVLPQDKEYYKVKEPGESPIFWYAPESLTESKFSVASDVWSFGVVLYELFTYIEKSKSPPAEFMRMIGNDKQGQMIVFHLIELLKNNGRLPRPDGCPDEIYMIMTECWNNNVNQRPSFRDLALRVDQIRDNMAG
Sequence of LRRK2 (Q5S007 whole entry): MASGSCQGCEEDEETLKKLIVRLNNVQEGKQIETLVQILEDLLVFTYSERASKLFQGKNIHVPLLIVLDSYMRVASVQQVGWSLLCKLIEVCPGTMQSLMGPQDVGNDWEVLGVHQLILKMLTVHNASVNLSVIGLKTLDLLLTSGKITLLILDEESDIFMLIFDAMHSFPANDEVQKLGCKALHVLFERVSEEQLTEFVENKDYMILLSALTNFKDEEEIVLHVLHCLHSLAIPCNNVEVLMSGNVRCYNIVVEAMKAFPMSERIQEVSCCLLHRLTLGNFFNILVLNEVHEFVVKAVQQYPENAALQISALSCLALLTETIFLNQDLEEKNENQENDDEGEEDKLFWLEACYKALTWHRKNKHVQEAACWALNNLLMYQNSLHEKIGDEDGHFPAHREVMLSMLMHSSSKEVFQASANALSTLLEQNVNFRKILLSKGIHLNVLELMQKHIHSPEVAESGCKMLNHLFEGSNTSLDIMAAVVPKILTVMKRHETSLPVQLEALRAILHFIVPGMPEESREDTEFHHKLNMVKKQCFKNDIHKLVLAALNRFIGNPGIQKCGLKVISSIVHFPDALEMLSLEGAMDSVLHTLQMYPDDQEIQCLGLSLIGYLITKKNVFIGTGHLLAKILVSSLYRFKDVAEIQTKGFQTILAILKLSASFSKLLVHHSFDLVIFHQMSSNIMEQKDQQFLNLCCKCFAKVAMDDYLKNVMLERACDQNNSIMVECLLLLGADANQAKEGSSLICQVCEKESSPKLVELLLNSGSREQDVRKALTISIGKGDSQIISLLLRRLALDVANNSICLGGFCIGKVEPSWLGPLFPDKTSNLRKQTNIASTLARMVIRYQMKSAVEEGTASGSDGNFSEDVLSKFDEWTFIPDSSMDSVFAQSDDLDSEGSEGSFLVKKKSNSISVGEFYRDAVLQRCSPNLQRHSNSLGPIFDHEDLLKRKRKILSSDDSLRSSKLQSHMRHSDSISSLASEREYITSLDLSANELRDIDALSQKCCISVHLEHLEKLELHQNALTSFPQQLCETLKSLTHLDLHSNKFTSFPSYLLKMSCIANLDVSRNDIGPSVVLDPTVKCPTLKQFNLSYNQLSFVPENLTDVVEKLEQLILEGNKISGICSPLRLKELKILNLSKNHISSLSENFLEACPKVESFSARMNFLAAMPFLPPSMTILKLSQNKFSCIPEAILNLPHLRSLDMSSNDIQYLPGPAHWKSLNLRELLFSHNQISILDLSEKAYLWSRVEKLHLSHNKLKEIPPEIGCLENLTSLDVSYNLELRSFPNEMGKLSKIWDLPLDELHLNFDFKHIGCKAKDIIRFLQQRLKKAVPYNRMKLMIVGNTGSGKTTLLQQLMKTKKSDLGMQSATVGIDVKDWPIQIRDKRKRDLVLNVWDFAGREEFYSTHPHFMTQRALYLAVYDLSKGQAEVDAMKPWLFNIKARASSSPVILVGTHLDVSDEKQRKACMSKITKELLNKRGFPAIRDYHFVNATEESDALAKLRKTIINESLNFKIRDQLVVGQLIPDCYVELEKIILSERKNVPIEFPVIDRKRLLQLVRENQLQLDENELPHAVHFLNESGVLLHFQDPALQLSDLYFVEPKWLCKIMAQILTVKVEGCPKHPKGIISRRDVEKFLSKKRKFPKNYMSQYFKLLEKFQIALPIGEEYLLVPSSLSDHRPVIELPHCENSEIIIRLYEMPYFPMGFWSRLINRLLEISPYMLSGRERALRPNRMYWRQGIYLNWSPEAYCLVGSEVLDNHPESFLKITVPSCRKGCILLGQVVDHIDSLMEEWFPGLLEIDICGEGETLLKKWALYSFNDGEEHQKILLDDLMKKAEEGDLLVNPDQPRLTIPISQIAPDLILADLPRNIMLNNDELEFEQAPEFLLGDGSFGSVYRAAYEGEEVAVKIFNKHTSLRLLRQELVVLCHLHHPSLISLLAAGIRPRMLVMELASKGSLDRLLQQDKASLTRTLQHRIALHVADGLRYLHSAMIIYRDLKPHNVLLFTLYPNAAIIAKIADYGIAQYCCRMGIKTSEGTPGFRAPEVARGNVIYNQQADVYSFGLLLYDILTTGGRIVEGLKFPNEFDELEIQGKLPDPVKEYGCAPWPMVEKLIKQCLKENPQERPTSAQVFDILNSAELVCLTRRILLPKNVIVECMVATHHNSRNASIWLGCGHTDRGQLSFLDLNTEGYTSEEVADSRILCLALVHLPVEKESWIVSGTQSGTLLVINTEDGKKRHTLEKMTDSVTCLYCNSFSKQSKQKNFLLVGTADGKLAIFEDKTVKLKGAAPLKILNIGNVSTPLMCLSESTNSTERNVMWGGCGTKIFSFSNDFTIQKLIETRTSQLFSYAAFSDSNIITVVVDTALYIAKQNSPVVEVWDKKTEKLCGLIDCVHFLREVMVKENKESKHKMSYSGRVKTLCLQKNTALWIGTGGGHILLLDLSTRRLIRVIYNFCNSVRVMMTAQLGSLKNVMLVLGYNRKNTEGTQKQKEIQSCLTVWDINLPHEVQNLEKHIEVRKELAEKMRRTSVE
Sequence of CDK7 (P50613 whole entry, species assumed): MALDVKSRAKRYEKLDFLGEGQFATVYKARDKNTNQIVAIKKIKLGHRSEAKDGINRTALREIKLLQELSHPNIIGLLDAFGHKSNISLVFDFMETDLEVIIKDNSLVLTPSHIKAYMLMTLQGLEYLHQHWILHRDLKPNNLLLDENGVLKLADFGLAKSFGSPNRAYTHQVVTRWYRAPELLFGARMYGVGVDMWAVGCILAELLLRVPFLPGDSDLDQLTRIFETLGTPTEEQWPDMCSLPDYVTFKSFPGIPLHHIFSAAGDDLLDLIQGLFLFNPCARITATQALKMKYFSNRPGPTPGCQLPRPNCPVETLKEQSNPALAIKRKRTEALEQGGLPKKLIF
Sequence of CDK7 (P51946 whole entry partner, species assumed): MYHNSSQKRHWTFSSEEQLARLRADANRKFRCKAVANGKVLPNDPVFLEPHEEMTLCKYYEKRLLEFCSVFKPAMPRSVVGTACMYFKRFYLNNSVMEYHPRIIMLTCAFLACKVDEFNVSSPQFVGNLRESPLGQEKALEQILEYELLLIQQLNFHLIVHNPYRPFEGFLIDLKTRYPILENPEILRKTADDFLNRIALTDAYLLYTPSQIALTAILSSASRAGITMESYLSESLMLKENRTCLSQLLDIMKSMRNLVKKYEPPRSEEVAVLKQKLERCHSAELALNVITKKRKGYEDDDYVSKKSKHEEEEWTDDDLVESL
Sequence of CDK7 (P51948 whole entry partner, species assumed): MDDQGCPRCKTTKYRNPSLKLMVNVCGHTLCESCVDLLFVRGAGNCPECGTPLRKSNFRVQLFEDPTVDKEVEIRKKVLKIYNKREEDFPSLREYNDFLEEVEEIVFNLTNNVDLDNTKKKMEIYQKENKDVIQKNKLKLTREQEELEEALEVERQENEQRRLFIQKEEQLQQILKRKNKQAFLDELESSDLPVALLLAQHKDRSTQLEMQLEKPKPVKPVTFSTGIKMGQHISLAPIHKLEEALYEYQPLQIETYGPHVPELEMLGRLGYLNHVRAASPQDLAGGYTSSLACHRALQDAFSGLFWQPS

One may read the inhibition as the percentage by which the read-out fell short of the control. With `CN1CCOCCOc2cc(Nc3nc(-c4cn(C)c5ccccc45)c4cn[nH]c4n3)ccc2OCC1` [Example 24, 7-methyl-N-(4-(1-methyl-1H-indol-3-yl)-1H-pyrazolo[3,4-d]pyrimidin-6-yl)-2,3,6,7,8,9-hexahydro-5H-benzo[b][1,4,7]trioxa[10]azacyclododecan-13-amine], the results for the inhibition at 0.1 µM on JAK2, on LRRK2 and on CDK7 were 40 to 79%, 25 to 39% and 40 to 79%, respectively.
For `CC(C)S(=O)(=O)c1ccccc1Nc1nc(Nc2ccc3c(c2)OCCN(C)CCOCCO3)nc2[nH]ccc12` [Example 53, N^4-(2-(isopropylsulfonyl)phenyl)-N^2-(7-methyl-2,3,6,7,8,9-hexahydro-5H-benzo[b][1,4,7]trioxa[10]azacyclododecan-12-yl)-7H-pyrrolo[2,3-d]pyrimidin-2,4-diamine], the inhibition at 0.01 µM is 40 to 79% on JAK2, 40 to 79% at JAK3, over 80% on LRRK2 and over 80% on CDK7.
With `CN1CCOc2ccc(Nc3nc(-c4cn(C)c5ccccc45)c4cn[nH]c4n3)cc2OCC1` [Example 5, 4-methyl-N-(4-(1-methyl-1H-indol-3-yl)-1H-pyrazolo[3,4-d]pyrimidin-6-yl)-3,4,5,6-tetrahydro-2H-benzo[b][1,4,7]dioxazolin-9-amine], on CDK7, the inhibition at 0.1 µM fell in the range of 25 to 39%.
As for `C=CC(=O)Nc1cc(C)ccc1Nc1nc(Nc2ccc3c(c2)OCCN(C)CCO3)ncc1C(F)(F)F` [Example 112, N-(5-methyl-2-((2-((4-methyl-3,4,5,6-tetrahydro-2H-benzo[b][1,4,7]dioxazolin-9-yl)amino)-5-(trifluoromethyl)pyrimidin-4-yl)amino)phenyl)acrylamide], the inhibition at 0.01 µM on CDK7 lay in the range of 40 to 79%.
The term IC50 denotes the concentration that gives 50% inhibition. As for `CN1CCOc2ccc(Nc3nc(-c4cn(C)c5ccccc45)c4cc[nH]c4n3)cc2OCC1` [Example 39, 4-methyl-N-(4-(1-methyl-1H-indol-3-yl)-7H-pyrrolo[2,3-d]pyrimidin-2-yl)-3,4,5,6-tetrahydro-2H-benzo[b][1,4,7]dioxazolin-9-amine], the figures for the inhibition at 0.1 µM on JAK2, on LRRK2 and at CDK7 were 40 to 79%, 40 to 79% and 25 to 39%, respectively. The compound further gave an IC50 against LRRK2 of under 0.05 µM.
With `CC(C)S(=O)(=O)c1ccccc1Nc1nc(Nc2ccc3c(c2)OCCN(C)CCOCCO3)nc2[nH]ncc12` [Example 12, N^4-(2-(isopropylsulfonyl)phenyl)-N^6-(7-methyl-2,3,6,7,8,9-hexahydro-5H-benzo[b][1,4, 7]trioxa[10]azacyclododecan-12-yl)-1H-pyrazolo[3,4-d]pyrimidin-4,6-diamine], the inhibition at 0.1 µM is 40 to 79% at JAK2, 25 to 39% at JAK3, over 80% at LRRK2 and over 80% on CDK7. Further, the figures for the inhibition at 0.01 µM on LRRK2 and at CDK7 were 25 to 39% and 40 to 79%, respectively. Further, the IC50 is under 0.05 µM at LRRK2 and under 0.05 µM on CDK7 (kinase activity assay, Table 3).
As for `CC(C)S(=O)(=O)c1ccccc1Nc1nc(Nc2ccc3c(c2)OCCN(C)CCO3)nc2[nH]ncc12` [Example 36, N^4-(2-(isopropylsulfonyl)phenyl)-N^6-(4-methyl-3,4,5,6-tetrahydro-2H-benzo[b] [1,4,7]dioxazolin-9-yl)-1H-pyrazolo[3,4-d]pyrimidin-4,6-diamine], the inhibition at 0.1 µM at JAK2 was 40 to 79%; on JAK3, 25 to 39%; at LRRK2 it was over 80%; at CDK7, 40 to 79%. The IC50 against LRRK2 was under 0.05 µM.
For the compound `CCS(=O)(=O)N1CC(CC#N)(n2cc(-c3nc(Nc4ccc5c(c4)OCCN(C)CCOCCO5)nc4[nH]ccc34)cn2)C1` [Example 49, 2-(1-(ethylsulfonyl)-3-(4-(2-((7-methyl-2,3,6,7,8,9-hexahydro-5H-benzo[b][1,4,7]trioxa[10]azacyclododecan-12-yl)amino)-7H-pyrrolo[2,3-d]pyrimidin-4-yl)-1H-pyrazol-1-yl)azetidin-3-yl)acetonitrile], the inhibition at 0.01 µM on JAK1 is over 80%; at JAK2 it was over 80%; at TYK2, over 80%; at JAK3, over 80%; on LRRK2, 40 to 79%.
As for `CN1CCOCCOc2cc(Nc3nc(Nc4cccc(S(N)(=O)=O)c4)c4cc[nH]c4n3)ccc2OCC1` [Example 67, 3-((2-((7-methyl-2,3,6,7,8,9-hexahydro-5H-benzo[b][1,4,7]trioxa[10]azacyclododecan-13-yl)amino)-7H-pyrrolo[2,3-d]pyrimidin-4-yl)amino)benzenesulfonamide], the inhibition at 0.1 µM at JAK2 is 40 to 79%; at JAK3, 25 to 39%; on LRRK2, over 80%; at CDK7, 40 to 79%.
Take `CC(=O)N1CCOCCOc2cc(Nc3nc(Nc4ccccc4S(=O)(=O)C(C)C)c4cc[nH]c4n3)ccc2OCC1` [Example 98, 1-(13-((4-((2-(isopropylsulfonyl)phenyl)amino)-7H-pyrrolo[2,3-d]pyrimidin-2-yl)amino)-2,3,5,6,8,9-hexahydro-7H-benzo[b][1,4,7]trioxa[10]azacyclododecan-7-yl)ethan-1-one]: the inhibition at 0.01 µM was 40 to 79% at JAK2, 40 to 79% at JAK3, over 80% on LRRK2 and 25 to 39% on CDK7. The IC50 on LRRK2 is under 0.05 µM.
For the compound `CN1CCOCCOc2cc(Nc3nc(Nc4ccccc4P(C)(C)=O)c4cn[nH]c4n3)ccc2OCC1` [Example 33, dimethyl(2-((6-((7-methyl-2,3,6,7,8,9-hexahydro-5H-benzo[b][1,4,7]trioxa[10]azacyclododecan-13-yl)amino)-1H-pyrazolo[3,4-d]pyrimidin-4-yl)amino)phenyl)phosphine oxide], the inhibition at 0.1 µM on JAK2 was 40 to 79%; at JAK3 it was over 80%; at LRRK2, over 80%; at CDK7, 40 to 79%. The inhibition at 0.01 µM was 25 to 39% at JAK3 and over 80% on LRRK2. The compound also yielded a concentration for half-maximal inhibition (IC50) against LRRK2 of under 0.05 µM.
